Legend:
SH-SY5Y cells = test: Western blot of SH-SY5Y cells (3-Ntyr, mTOR pathway proteins, synaptophysin); type: cell-based, human; settings: 100 μM 7-NI, 24 hr
Method: Human neuroblastoma (“NB”) SH-SY5Y cells were obtained from the American Type Culture Collection (ATCC) and maintained in Dulbecco's modified Eagle's medium (DMEM) and Ham's F-12 (1:1) supplemented with 10% fetal bovine serum, 2 mM L-glutamine, and 100 U/ml penicillin-G/[…] streptomycin in the humidified atmosphere (37° C., 5% CO2). Cells were plated onto 25 cm^2 and 75 cm^2 at a density of […] respectively for Western blotting (WB) and 1×10^5 for immunofluorescence. The SH-SY5Y cells were treated with 100 μM 7-nitroindazole (7-NI) for 24 hr. This concentration was confirmed in the dose-response experiment (FIG. 1) using an MTT viability assay.
Cells were lysed in ice-cold RIPA buffer containing 50 mM Tris-HCl, 1% Nonidet P-40, 0.25% sodium deoxycholate, 150 mM NaCl, protease-, and phosphatase inhibitor cocktails, pH 7.4. After sonication, the lysates were centrifuged at 17,000 g for 30 min at 4° C., and the supernatant was collected. The protein concentrations were determined with the BCA protein assay. Proteins were resolved by SDS-PAGE, transferred to a PVDF membrane, and probed with the following antibodies: anti-pMTOR (rabbit, diluted 1:1000), anti-mTOR (rabbit, diluted 1:1000), anti-TSC2 (rabbit, diluted 1:1000), anti-nNOS (rabbit, diluted 1:1000), anti-pAKT (rabbit, diluted 1:1000), anti-AKT (rabbit, diluted 1: 1000), anti-pRPS6 (rabbit, diluted 1:1000), anti-RPS6 (mouse, diluted 1:1000), anti-synaptophysin (mouse, diluted 1:1000), anti-β-actin (rabbit, diluted 1:1000), anti-3-Nitrotyrosine (rabbit, diluted 1:5000) from Abcam. All primary antibodies, except anti-3-Nitrotyrosine, were purchased from Cell Signaling Technology. The blots were then visualized using an enhanced chemiluminescence (ECL) system.
SH-SY5Y cells were plated in 6 well plates, as well as on 22 mm^2 coverslips at a density of 6.0×10^4 cells/cm^2 and transfected with 20 nM nNOS siRNA (SEQ ID NO: 4) for 24 h, with the use of Lipofectamine RNAi MAX (56530, Invitrogen) according to the manufacturer's protocol. Then cells were washed with phosphate-buffered saline (PBS) and harvested for WB and fixed for immunofluorescence.

U87-MG cells [1] = test: Xenograft glioblastoma model, U87-MG cells in NSG mice: tumor volume and mass; type: in vivo
Method: A xenograft glioblastoma model was generated by injecting 1.0×10^6 U87-MG cells (in PBS) into the subcutaneous tissue in the flank of NOD SCID Gamma (NSG) male (n=40) and female mice (n=5). Mice were 6-7 weeks old at time of injections. Mice were divided into groups and treatment was started when tumor volume reached 50 mm^3.
An initial experiment was performed with two treatment groups of mice, the treatment groups were: 0.1% DMSO (“Vehicle”) (n=10) and 80 mg/kg of 7-NI (n=10). Treatments were administered intraperitoneally daily for 8 days. Treatment started after five days from the injection with U87-MG cells. After one month, all mice were euthanized, and tumors were harvested for ex vivo analysis and histology. Tumor volume was measured using calipers and was calculated as (length*width^2)/2. The tumor volume of all mice were tabulated, as well the best 4-5 mice in terms of treatment efficacy (smallest tumor volume).
A dose response experiment was performed in the mice, the treatment groups were 0.1% DMSO (“Vehicle”) (n=8), 20 mg/kg 7-NI (n=8), 40 mg/kg 7-NI (n=8), and 80 mg/kg 7-NI (n=8). Treatments were administered intraperitoneally daily, for 14 days. Treatment started after five days from the injection with U87-MG cells. All mice were euthanized, and tumors were harvested for ex vivo analysis and histology. Tumor volume was measured using calipers and was calculated as (length*width^2)/2. The tumor volume of all mice were tabulated, as well the tumor mass.

U87-MG cells [2] = test: Griess assay, nitrite and nitrate content; type: cell-based, human; settings: L-NIL alone, compared to the control (summary statement)
Method: In a particular example, in vitro and in vivo experiments were performed using U87-MG cells and U87-MG-xenografted mice, respectively, as a glioblastoma model.

[3] = highest dosage of 7-NI (80 mg/kg) in dose response experiment, daily for 14 days, vs lower dosages
[4] = reduced dosages, as low as 20 mg/kg 7-NI intraperitoneally daily for 14 days, vs vehicle

Compound | 3-Ntyr levels (SH-SY5Y cells) | levels of TSC-2 (SH-SY5Y cells) | levels of synaptophysin (SH-SY5Y cells) | phosphorylation of RPS6 (SH-SY5Y cells) | phosphorylation of mTOR (SH-SY5Y cells) | phosphorylation of protein kinase-B (AKT) (SH-SY5Y cells) | average tumor size (U87-MG cells [1]; NSG mice, 80 mg/kg 7-NI intraperitoneally daily for 8 days, vs vehicle) | average tumor size (U87-MG cells [1]; [3]) | tumor mass (U87-MG cells [1]; [3]) | average tumor size (U87-MG cells [1]; [4]) | tumor mass (U87-MG cells [1]; [4]) | total nitrate and nitrite content (U87-MG cells [2])
O=[N+]([O-])c1cccc2cn[nH]c12 [7-NI, 7-nitroindazole] | halved | significant increase | significantly decreased | reduced | decrease | reduced | significantly smaller | larger reduction | larger reduction | significantly smaller | smaller | 
CC(=N)NCCCC[C@H](N)C(=O)O [L-NIL, N^6-(1-iminoethyl)-L-lysine] |  |  |  |  |  |  |  |  |  |  |  | significantly reduced

Reference: patent publication US20260284009A1, “COMPOUNDS FOR NOS-RELATED CANCERS AND METHODS OF USE” (YISSUM RESEARCH DEVELOPMENT COMPANY OF THE HEBREW …, priority 2023, published 2026)
